Assay results published in the NIST ThermoML archive (doi:10.1021/acs.jced.5b00806).

How the values were obtained:
[1] = wn = mass fraction of the nth substance listed; conditions: 98 kPa, Liquid, Capillary tube (Ostwald / Ubbelohde) method
[2] = Liquid; for mass density: 101.33 kPa, Pycnometric method; for vapor or sublimation pressure: Langmuir

CCCCn1cc[n+](C)c1.F[B-](F)(F)F [1-butyl-3-methylimidazolium tetrafluoroborate] + O
kinematic viscosity [m2/s], [1]
Conditions | w2 = 0.0033 | w2 = 0.0097 | w2 = 0.0181 | w2 = 0.0258 | w2 = 0.0345 | w2 = 0.0488 | w2 = 0.0552 | w2 = 0.066
303.2 K | 5.78e-05 | 4.53e-05 | 3.44e-05 | 2.89e-05 | 2.26e-05 | 1.64e-05 | 1.52e-05 | 1.39e-05
313.2 K | 3.76e-05 | 3.02e-05 | 2.37e-05 | 2.02e-05 | 1.62e-05 | 1.2e-05 | 1.12e-05 | 1.02e-05
323.2 K | 2.59e-05 | 2.14e-05 | 1.73e-05 | 1.48e-05 | 1.22e-05 | 9.2e-06 | 8.6e-06 | 7.9e-06
333.2 K | 1.86e-05 | 1.54e-05 | 1.28e-05 | 1.13e-05 | 9.4e-06 | 7.2e-06 | 6.8e-06 | 6.2e-06
343.2 K | 1.39e-05 | 1.21e-05 | 1e-05 | 8.8e-06 | 7.5e-06 | 5.9e-06 | 5.5e-06 | 5.1e-06
353.2 K | 1.08e-05 | 9.8e-06 | 8e-06 | 7.2e-06 | 6.2e-06 | 4.9e-06 | 4.6e-06 | 4.2e-06
363.2 K | 8.6e-06 | 7.7e-06 | 6.5e-06 | 5.8e-06 | 5.1e-06 | 4.1e-06 | 3.9e-06 | 3.6e-06

CCOCCOCCOS(=O)(=O)[O-].CCn1cc[n+](C)c1 [1-ethyl-3-methylimidazolium 2-(2-ethoxyethoxy)ethylsulfate]
[2]
Conditions | mass density [kg/m3] | vapor or sublimation pressure [kPa]
293.2 K | 1215 | –
303.2 K | 1207 | –
313.2 K | 1200 | –
323.2 K | 1193 | –
333.2 K | 1185 | –
343.2 K | 1178 | –
353.2 K | 1170 | –
363.2 K | 1164 | –
419.7 K | – | 3.4e-09
429 K | – | 3.8e-09
430.1 K | – | 5.6e-09
430.7 K | – | 4.9e-09
436.4 K | – | 1.3e-08
438.3 K | – | 8.7e-09
438.4 K | – | 1.1e-08
438.5 K | – | 1.1e-08
440.2 K | – | 1.4e-08
445.7 K | – | 2.6e-08
445.8 K | – | 2.5e-08
448.1 K | – | 2.1e-08
